Laboratory results taken from patent US20030087237A1, “Low-temperature cycle extension of DNA with high polymerization specificity” (priority 2001, published 2003).
Entries after “also recorded” stand apart in the source; their conditions may differ. Where two headings read alike, the source gives them in different places.

B1: Bst-I: wild type, natural form of Bacillus stearothermophilus DNA polymerase (protein, UniProt P52026 1-876, looked up)
DNA polymerase I: MKNKLVLIDGNSVAYRAFFALPLLHNDKGIHTNAVYGFTMMLNKILAEEQPTHILVAFDAGKTTFRHETFQDYKGGRQQTPPELSEQFPLLRELLKAYRIPAYELDHYEADDIIGTMAARAEREGFAVKVISGDRDLTQLASPQVTVEITKKGITDIESYTPETVVEKYGLTPEQIVDLKGLMGDKSDNIPGVPGIGEKTAVKLLKQFGTVENVLASIDEIKGEKLKENLRQYRDLALLSKQLAAICRDAPVELTLDDIVYKGEDREKVVALFQELGFQSFLDKMAVQTDEGEKPLAGMDFAIADSVTDEMLADKAALVVEVVGDNYHHAPIVGIALANERGRFFLRPETALADPKFLAWLGDETKKKTMFDSKRAAVALKWKGIELRGVVFDLLLAAYLLDPAQAAGDVAAVAKMHQYEAVRSDEAVYGKGAKRTVPDEPTLAEHLVRKAAAIWALEEPLMDELRRNEQDRLLTELEQPLAGILANMEFTGVKVDTKRLEQMGAELTEQLQAVERRIYELAGQEFNINSPKQLGTVLFDKLQLPVLKKTKTGYSTSADVLEKLAPHHEIVEHILHYRQLGKLQSTYIEGLLKVVHPVTGKVHTMFNQALTQTGRLSSVEPNLQNIPIRLEEGRKIRQAFVPSEPDWLIFAADYSQIELRVLAHIAEDDNLIEAFRRGLDIHTKTAMDIFHVSEEDVTANMRRQAKAVNFGIVYGISDYGLAQNLNITRKEAAEFIERYFASFPGVKQYMDNIVQEAKQKGYVTTLLHRRRYLPDITSRNFNVRSFAERTAMNTPIQGSAADIIKKAMIDLSVRLREERLQARLLLQVHDELILEAPKEEIERLCRLVPEVMEQAVTLRVPLKVDYHYGPTWYDAK

Legend:
Bst-II DNA polymerase [1] = molecular target: T1, Bst-II DNA polymerase (Geobacillus stearothermophilus, UniProt P52026, A297E/A304V/A338V/A377V/A406D/A433V/A505S/D300E/D309E/D325E/D402N/D540E/D696E/D751E/E459Q/E464D/E476K/E631P/E632L/E667D/F710Y/G298E/G324E/G362A/G483A/G678D/H329D/H417K/H573N/H596R/H691Q/K356Q/K494N/L346M/L461F/L630T/N487E/P355S/P441Q/P480A/Q479H/Q512R/R341H/R467N/R472Q/R516Q/R676Q/R816K/R819Q/R846E/S306V/S373A/S812A/T369S/T436S/T508A/T536V/V307I/V323M/V391A/V410I/V437L/V514I/V537I/V598D/V619A/V692L/V813A); type: biochemical, Bacillus stearothermophilus; conditions: for effect on 5′-3′ polymerization activity of the polymerase: 65° C.
T1 construct: made in house
T1 sequence (P52026 other isoform, or with tags, fused parts or gaps with the stated changes): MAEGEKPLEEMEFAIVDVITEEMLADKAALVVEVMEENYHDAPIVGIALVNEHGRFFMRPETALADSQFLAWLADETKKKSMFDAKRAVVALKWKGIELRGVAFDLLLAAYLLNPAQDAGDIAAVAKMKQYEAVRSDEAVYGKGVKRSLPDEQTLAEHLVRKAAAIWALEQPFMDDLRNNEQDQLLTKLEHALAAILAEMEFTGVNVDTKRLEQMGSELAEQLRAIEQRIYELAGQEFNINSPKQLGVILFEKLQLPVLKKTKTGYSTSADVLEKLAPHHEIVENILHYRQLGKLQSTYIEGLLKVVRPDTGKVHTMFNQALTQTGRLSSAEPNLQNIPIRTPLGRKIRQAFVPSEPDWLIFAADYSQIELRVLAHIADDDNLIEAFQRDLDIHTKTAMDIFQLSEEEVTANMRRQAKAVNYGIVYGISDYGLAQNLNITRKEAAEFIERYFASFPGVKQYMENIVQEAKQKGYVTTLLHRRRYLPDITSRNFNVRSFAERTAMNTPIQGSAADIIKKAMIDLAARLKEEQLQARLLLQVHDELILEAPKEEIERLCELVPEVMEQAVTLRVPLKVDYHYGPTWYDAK
Method: The remaining activity of Bst-II DNA polymerase (produced according to U.S. Pat. No. 6,165,765) in the presence of different concentrations of Glycerol was determined as follows:
(a) In a series of numbered 0.5 ml microcentrifuge tubes were added the following:
The mixtures above were firstly evaporated by Speed-Vacuum, then varying final concentrations of glycerol in each reaction mixture were achieved by adding an appropriate amount of a glycerol stock solution to the above microcentrifuge tubes as indicated below.
(b) All these tubes were incubated at 65° C. for 30 minutes. Then each of the reaction mixtures was pipetted onto a DE-81 filter. After all of the fluid has evaporated, the amount of radioactivity on each filter was measured with scintillation and recorded as X1. Thereafter, the filters were washed three times with 0.3 M Na2HPO4 solution at room temperature, 10 minutes each times, dried at room temperature and then the amount of radioactivity on each filter was measured again and recorded as X2. Incorporation ratio=X2/X1. [formula]

Bst-II DNA polymerase [2] = molecular target: T1, Bst-II DNA polymerase; test: Low-temperature cycle primer extension with Bst-II at different glycerol concentrations (agarose gel); type: biochemical, Bacillus stearothermophilus
Method: Bst-II DNA polymerase was used for the study. […]
(§1) The reaction products were run on a 1% agarose gel for electrophoresis and stained by ethidium bromide.
Four different sets of templates and primers were selected representing varying lengths of the DNA segments to be amplified:
The low temperature cycle extension was carried out as follows:
(a) To a 0.2 ml microcentrifuge tube were added.
(b) The mixture above was firstly evaporated by Speed-Vacuum, then the following were added to each microcentrifuge tube containing the evaporated reagents with different sets of template and primers to achieve a final concentration of 35% glycerol and 15% glycerol in the reaction mixture, respectively.
(c) All the microcentrifuge tubes with the reaction mixture were subjected to low temperature cycling as follows:
The reaction products were run on a 1% agarose gel for electrophoresis and stained by ethidium bromide. The reaction products from the mixture containing 35% glycerol were loaded in lane 1, and the reaction products from the mixture containing 15% glycerol were loaded in lane 2.

rice genome BAC B414f7 = test: Low-temperature cycle extension of 17 mer and 30 mer primers with different DNA polymerases (agarose gel); type: biochemical; conditions: Bst system, 15% glycerol, 70° C./37° C./50° C., 35 cycles
Method: The polymerases used were Bst-I (wild type produced according to U.S. Pat. No. 5,834,254), Bst-II, and Bca (TaKaRa Co.). The Klenow fragment (Sigma Chemical Co.) was used as a thermolabile DNA polymerase for comparison (Iakobashvili and Lapidot).
The template used was rice genome BAC B414f7.
The two pairs of primers used were: […]
The following reaction system (referred to hereafter as the Bst system) was used.
(a) In a 0.2 ml microcentrifuge tube were added:
(b) The microcentrifuge tubes were subjected to the following temperature cycling.
as §1
In addition, the method of using a reaction mixture containing 4.5 M proline and 17% glycerol in Tris-HCl buffer as recommended by Iakobashvili and Lapidot was also adopted for the reactions with Klenow fragment as the DNA polymerase (hereafter referred to as the Iakobashvili and Lapidot system). The reaction products were also run parallel to those obtained with the Bst system, and illustrated as follows in FIG. 4.

[3] = higher concentrations (greater than about 35%)
[4] = low concentration, not exceeding / up to about 20% (v/v)

| Molecule | effect on 5′-3′ polymerization activity of the polymerase (Bst-II DNA polymerase [1]; [3]) | effect on 5′-3′ polymerization activity of the polymerase (Bst-II DNA polymerase [1]; [4]) | loss of original polymerization activity (Bst-II DNA polymerase [1]; glycerol 40% (v/v)) | amplification products on gel (Bst-II DNA polymerase [2]; 15% glycerol, target products 250 bp to 2 Kb) | amplification products on gel (Bst-II DNA polymerase [2]; 35% glycerol, target product 1 Kb and 2 Kb) | amplification products on gel (Bst-II DNA polymerase [2]; 35% glycerol, target product 250 bp or 400 bp) | amplification products on gel (Bst-II DNA polymerase [2]; 40% glycerol, template pBluescript(+), low or high template concentration, 70° C./45° C., 35 cycles) | amplification product from 17 mer and 30 mer primer extension (rice genome BAC B414f7) |
| --- | --- | --- | --- | --- | --- | --- | --- | --- |
| OCCO [ethylene glycol] | detrimental inhibitory effect | increase the sequence-specific DNA polymerization activity | – | – | – | – | – | – |
| OCC(O)CO [glycerol] | detrimental inhibitory effect; also recorded: invariably suppressed this enzymatic activity | increased the enzymatic activity; also recorded: increase the sequence-specific DNA polymerization activity; also recorded: increased the 5′-3′ polymerization activity | ⅔ | specific amplification products | both specific and non-specific amplification products | no amplification products produced at all | non-specific amplification products of varying sizes | – |
| B1 | – | – | – | – | – | – | – | generated specific amplification products |
